Data from patent EP1796707B1, “PEPTIDES THAT SELECTIVELY HOME TO HEART VASCULATURE AND RELATED CONJUGATES AND METHODS” (The Burnham Institute, priority 2004, dated 2011).

Columns and labels:
heart vasculature = test: In vivo phage homing to the heart after intravenous injection; conditions: peptide displayed on T7Select 415-1 phage, assayed individually, intravenous injection into mice
Procedure: In vivo panning was performed as follows. The ex vivo-selected phage pool (5 x 10^9 p.f.u.) was intravenously injected into mice through the tail vein and allowed to circulate for ten minutes before mice were carefully perfused through the left ventricle with DMEM in order to remove unbound intravascular phage. The heart and control tissues (brain, kidney, skin and muscle) were excised, and phage recovered as described in Hoffman et al., supra, 2004. Phage recovered from the heart were reinjected into mice, and the cycle was repeated for a total of three rounds. Non-recombinant phage were injected into a separate mouse as a control in each experiment.
As summarized in Table 1, receptor clone 5 represents the carboxy-terminal 92 amino acids of heart LIM-protein (HLP), also designated cysteine-rich protein 2 (CRIP2) and ESP 1. HLP, which is expressed in the vascular heart (Yu et al., Mech. Dev. 116:187-192 (2002)) is a LIM domain-containing protein having homology to Crp-1 (Karim et al., Genomics 31:167-176 (1996); and van Ham et al., Genes Cells 8:631-644 (2003)). Of the five positive colonies from the two-hybrid analysis with the HLP clone, three cognate peptides were identified: CRPPR (SEQ ID NO: 1) was present twice, CGRKSKTVC (SEQ ID NO: 2) once and CGNQVDSRC (SEQ ID NO: 3) twice. After cloning these peptides into the T7Select 415-1 display vector, they were assayed for their ability to home to heart vasculature following intravenous injection. Relative to non-recombinant phage, the CRPPR (SEQ ID NO: 1)-displaying phage homed with more than 300 fold selectivity to the heart (Figure 2A).
Individual phage clones were reconstructed as follows. Oligonucleotides that encoded peptides from selected bait plasmids were synthesized, phosphorylated with T4 polynucleotide kinase (PNK; NEB) at 37°C for one hour, and annealed at a concentration of 0.08 pmol/µl. The annealed inserts were diluted to 0.04 pmol/µl and ligated into T7Select 415-1 arms (Novagen) with T4 ligase overnight at 16°C. The next day, intact recombinant phage were prepared by mixing the ligation reaction with packaging extracts as described by the manufacture. Inserts were confirmed by sequencing, and individual clones were amplified for ex vivo and in vivo testing as described in Example I above.

heart endothelia = test: Phage localization in tissues: co-injection with fluorescein-conjugated tomato lectin, anti-T7 immunostaining; type: in vivo, mice; conditions: peptide displayed on phage, anti-T7 antibody; for phage presence in heart endothelia: injected intravenously with fluorescein-conjugated tomato lectin; for phage detection in tissues other than heart: same conditions
Procedure: Further characterization was performed on the five most efficient homing peptides, as indicated by the fold-selectivity summarized in Table 1, and their putative receptors. These homing peptides were analyzed for the ability to selectively bind heart endothelia in vivo and for specific binding to their putative receptors, which also were analyzed for expression in heart endothelia. Each of the phage-displaying a particular homing peptide was individually injected intravenously into mice with fluorescein-conjugated tomato lectin, a blood vessel marker. […] None of the six phage were detected in tissues other than heart under the same conditions.
Immunohistochemistry was performed as follows. Rat monoclonal anti-mouse CD31 (1:100) was obtained from BD Pharmingen (San Jose, CA), and rabbit polyclonal anti-T7 phage (1:500), and chicken anti-mouse CRIP2 IgY (1:100) were obtained from GenWay (San Diego, CA). Secondary antibodies, AlexaFluor-488 goat anti-rat IgG (1:1000) and AlexaFluor-594 goat anti-rat or rabbit IgG (1:1000) were obtained from Molecular Probes (Eugene, OR); the secondary antibody GAYFC-AlexaFluor 594 goat anti-IgY Fc (1:250) was obtained from GenWay. Frozen sections were preincubated with blocking buffer (5% normal goat serum and 0.5% BSA in 1x PBS) for one hour, washed three times with PBS, and incubated with the primary antibody of interest overnight at 4°C. After the overnight incubation, secondary antibodies were added and incubated for one hour at room temperature. Slides were washed three times with PBS and mounted in Vectashield Mounting Medium with DAPI (Vector Laboratories; Burlingame, California). Blood vessels were additionally visualized by intravenous injection with Lycopersicon esculentum (tomato) lectin conjugated to fluorescein (100 µg in 200 µl of PBS) purchased from Vector Laboratories.

bc10 = test: Phage binding to 293T cells transfected with cognate receptor, with free peptide competition; set-up: species or system murine
Procedure: (§1) Full-length cDNAs were constructed for four of the putative heart homing receptors, HLP/CRIP2, Sigirr/TIR8, and MpcII-3-related protein and bc10, and expressed in 293T cells. […]
(§2) Receptor transfections and phage binding assays were performed as follows. 293T cells were transfected with pMH6-derived plasmids (Roche Diagnostics; Indianapolis, IN) encoding HLP/CRIP2, Sigirr/TIR8, MpcII-3-retated protein and bc10 using the Fugene transfection reagent (Roche Diagnostics). Briefly, 10 µg of plasmid was mixed with 700 µl of serum-free DMEM and 30 µl of Fugene transfection reagent and incubated for 15 minutes at room temperature before the mixture was added to cells. After forty-eight hours, cells were detached from culture dishes using EDTA and washed once with PBS. Phage displaying CRPPR (SEQ ID NO: 1), CKRAVR (SEQ ID NO: 7), CRSTRANPC (SEQ ID NO: 11) or CPKTRRVPC (SEQ ID NO: 12) and nonrecombinant control phage (1 x 10^9 p.f.u) were incubated with transfected cells for two hours at 4°C. Unbound phage were removed by five washes with 1% BSA in PBS. Bound phage were rescued by addition of bacteria; binding efficiencies were determined by plaque assay as described above.
(§3) Peptides for competition assays were synthesized at The Burnham Institute peptide facility using Fmoc chemistry in a solid-phase synthesizer prior to purification by HPLC and confirmation of their identity by mass spectrometry. Fluorescein-conjugated peptides were synthesized as described in Wender et al., Proc. Natl. Acad. Sci. USA 97:13003-13008 (2000). Competition assays were performed by addition of 100 µg peptide to the cells and phage, followed by incubation at 4°C for two hours. After five washes with […], bound phage were rescued and quantitated by plaque assay.

MpcII-3-related protein = test: as above; set-up: species or system murine
Procedure: as §1, §2, §3

[1] = conclusion from phage binding and competition on transfected 293T cells

CGRKSKTVC
heart homing selectivity relative to non-recombinant phage (heart vasculature): about 50 fold

CLIDLHVMC [peptide identified with receptor clone 27; phage served as a negative control]
phage presence in heart endothelia (heart endothelia): absent from the heart | phage detection in tissues other than heart (heart endothelia): absent from the heart and other tissues

CPKTRRVPC [tested on phage and as free peptide]
specific binding to the receptor (in words) (bc10; [1]): specifically binds | inhibition of phage binding to transfected cells by competition with free peptide (bc10; free synthetic peptide 100 µg/ml, CPKTRRVPC phage on bc10 transfected cells): inhibited | heart homing selectivity relative to non-recombinant phage (heart vasculature): about 60 fold | phage presence in heart endothelia (heart endothelia): present in heart endothelia | phage detection in tissues other than heart (heart endothelia): absent from other tissues

CRSTRANPC [tested on phage and as free peptide]
specific binding to the receptor (in words) (MpcII-3-related protein; [1]): specifically binds | inhibition of phage binding to transfected cells by competition with free peptide (MpcII-3-related protein; free synthetic peptide 100 mg/ml, CRSTRANPC phage on cells transfected with MpcII-3-related protein): inhibited | heart homing selectivity relative to non-recombinant phage (heart vasculature): about 20 fold | phage presence in heart endothelia (heart endothelia): present in heart endothelia | phage detection in tissues other than heart (heart endothelia): absent from other tissues

CSGMARTKC
heart homing selectivity relative to non-recombinant phage (heart vasculature): ~10 fold
